Patent publication US20150296788A1, “PESTICIDALLY ACTIVE TRICYCLIC PYRIDYL DERIVATIVES” (SYNGENTA PARTICIPATIONS AG, priority 2012, published 2015)

Experiments:
Assay type in all cases: in vivo
[1] = test system: Bemisia tabaci (Cotton White Fly); assay: Activity against Bemisia tabaci (cotton white fly), leaf disc, feeding/residual contact, preventive; settings: foliar, 144 h, cotton leaf discs sprayed, 12 to 18 adults, 6 days after infestation
Description: Activity Against Bemisia tabaci (Cotton White Fly)
(Feeding/Residual Contact Activity, Preventive)
Cotton leaf discs were placed on agar in a 24-well microtiter plate and sprayed with test solutions. After drying, the leaf discs were infested with 12 to 18 adults. After an incubation period of 6 days after infestation, samples were checked for mortality and special effects (e.g. phytotoxicity).

[2] = test system: Myzus persicae (Green Peach Aphid); assay: Activity against Myzus persicae (green peach aphid), leaf disc, feeding/residual contact, preventive; settings: foliar, 144 h, sunflower leaf discs sprayed, mixed-age aphid population, 6 days incubation
Description: Activity Against Myzus persicae (Green Peach Aphid)
(Mixed Population, Feeding/Residual Contact Activity, Preventive)
(§1) Sunflower leaf discs were placed on agar in a 24-well microtiter plate and sprayed with test solutions. After drying, the leaf discs were infested with an aphid population of mixed ages. After an incubation period of 6 days, samples were checked for mortality.

[3] = test system: Frankliniella occidentalis (Western Flower Thrips); assay: Activity against Frankliniella occidentalis (western flower thrips), leaf disc, feeding/residual contact, preventative; settings: foliar, 168 h, sunflower leaf discs sprayed, mixed-age population, 7 DAT
Description: Activity Against Frankliniella occidentalis (Western Flower Thrips)
(Mixed Population, Feeding/Residual Contact Activity, Preventative)
as §1, with “are” for “were”, “a Frankliniella” for “an aphid”, “7 DAT,” for “6 days,”, “mortality and special effects (e.g. phytotoxicity).” for “mortality.”

SMILES | mortality at 200 ppm [1] [%] | mortality at 200 ppm [2] [%] | mortality at 200 ppm [3] [%]
c1cncc(-n2cc(-c3ccc4c(n3)-c3ncncc3CC4)cn2)c1 [Compound 1.001, 9-[1-(3-pyridyl)pyrazol-4-yl]-5,6-dihydropyrido[3,2-h]quinazoline] | > 80 | > 80 | 
CN1c2ccc(-c3cnn(-c4cccnc4)c3)nc2-c2ncncc2S1(=O)=O [Compound 1.003, 9-methyl-6-(1-pyridin-3-yl-1H-pyrazol-4-yl)-9H-10-thia-2,4,5,9-tetraaza-phenanthrene 10,10-dioxide] |  | > 80 | > 80
CN1c2ccc(-c3cnn(-c4cccnc4)c3)nc2-c2[nH]ncc2S1(=O)=O [Compound 1.004, 5-methyl-8-(1-pyridin-3-yl-1H-pyrazol-4-yl)-1,5-dihydro-4-thia-1,2,5,9-tetraaza-cyclopenta[a]naphthalene 4,4-dioxide] | > 80 | > 80 | > 80
c1cncc(-n2cc(-c3ccc4c(n3)-c3n[nH]cc3CC4)cn2)c1 [Compound 1.002, 8-[1-(3-pyridyl)pyrazol-4-yl]-4,5-dihydro-2H-pyrazolo[4,3h]quinoline] | > 80 | > 80 | 
